Reference: patent publication US20240318225A1, “TECHNIQUES FOR ISOLATION OR ANALYSIS OF BACTERIAL PATHOGENS FROM PATIENT SAMPLES” (General Electric Company, priority 2021, published 2024)

Tested on: E. coli clinical isolate
Assay: microfluidic single cell antimicrobial susceptibility testing
Format: cell-based
Conditions: 8 μg/ml ampicillin; during the duration of the experiment
Experimental: The microfluidic device for single cell antimicrobial susceptibility testing was fabricated by soft lithography. The microchannel master mold was fabricated by photolithography patterning and reactive-ion etching of a silicon wafer. Microchannel layers were then fabricated by PDMS molding on the master mold. PDMS pre-polymer and cross-linker were mixed at 10:1 ratio. The mixture was poured on the master mold and incubated for at least 3 hours at 65° C. The single cell antimicrobial susceptibility testing device was fabricated by bonding the PDMS layer with a glass slide. Inlet and outlet reservoirs were created by punching the PDMS layer with a biopsy puncher.
To perform the microfluidic single cell antimicrobial susceptibility testing experiment, ampicillin was added to the enriched samples with concentrations of 0 μg/mL, 2 μg/mL, 4 μg/mL, and 8 μg/mL. Each respective solution was loaded into a microfluidic device by capillary force. The devices were then mounted onto an epi-fluorescence microscope (Leica DMI 4000B, objective 20× or 40×) with a microscope heating stage. The presence of bacteria was examined, and the bacterial growth was monitored continuously.
The disclosed workflows may be used for antimicrobial susceptibility testing using a microfluidic device. […]

CC1(C)S[C@@H]2[C@H](NC(=O)[C@H](N)c3ccccc3)C(=O)N2[C@H]1C(=O)O [ampicillin]
effect on bacteria at higher concentration: some bacteria were lysed
